≈ marks a conversion by molar mass, not a printed value. Like-named read-outs stand apart in the source and are kept apart here. Starred links: 1 amine or outer side, 2 acyl side, 3 side chain; linkers in the order of their positions; H or OH if unused. Positions of bridges follow the written chain, without caps; N, C: chain ends. Residues, ends and D or L forms follow the SMILES beside them. Groups on a side chain read outwards from the residue. *: point of attachment. C20 diacid = O=C(O)CCCCCCCCCCCCCCCCCCC(=O)*; C18 diacid = O=C(O)CCCCCCCCCCCCCCCCC(=O)*; γGlu = O=C(O)[C@H](CCC(=O)[*:2])N[*:1]; AEEA = NCCOCCOCC(=O)O
Tests used:
[1] = target: T1, human amylin receptor (amylin 3(a) receptor: human calcitonin receptor + RAMP-3) (Homo sapiens, UniProt O60896+P30988); test: Assay (II)a functional CRE-luciferase assay, human amylin receptor; format: cell-based
T1 construct: expressed in transfected cells; host or cells: BHK570
T1 sequence (P30988 25-474): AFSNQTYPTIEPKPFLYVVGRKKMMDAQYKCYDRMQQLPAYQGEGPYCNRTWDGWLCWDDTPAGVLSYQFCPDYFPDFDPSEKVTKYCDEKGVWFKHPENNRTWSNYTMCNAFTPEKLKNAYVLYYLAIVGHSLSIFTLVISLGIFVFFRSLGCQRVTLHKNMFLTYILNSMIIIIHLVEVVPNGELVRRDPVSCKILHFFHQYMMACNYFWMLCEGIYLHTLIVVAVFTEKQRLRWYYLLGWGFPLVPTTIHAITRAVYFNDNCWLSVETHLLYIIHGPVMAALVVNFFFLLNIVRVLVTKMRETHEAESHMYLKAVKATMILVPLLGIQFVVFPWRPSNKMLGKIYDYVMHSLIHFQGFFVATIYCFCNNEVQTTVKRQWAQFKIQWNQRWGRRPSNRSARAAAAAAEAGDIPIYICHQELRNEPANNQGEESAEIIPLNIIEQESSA
T1 sequence (O60896 24-148 partner): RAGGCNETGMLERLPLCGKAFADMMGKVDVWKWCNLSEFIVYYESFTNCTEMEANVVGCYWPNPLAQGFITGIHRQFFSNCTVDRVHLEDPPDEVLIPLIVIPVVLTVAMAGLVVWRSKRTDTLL

[2] = target: T2, human calcitonin receptor (Homo sapiens, UniProt P30988); test: Assay (II)a functional CRE-luciferase assay, human calcitonin receptor; format: cell-based
T2 construct: expressed in transfected cells; host or cells: BHK570
T2 sequence (P30988 25-474): T1 sequence (P30988 25-474)

[3] = Assay (III) ThT fibrillation assay for physical stability; format: physicochemical
Outline: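 Freshly prepared formulations, pH-adjusted, with 1 μM ThT; four or eight replicates incubated at 37 °C under 960 rpm orbital shaking. Fluorescence (ex 444/em 485 nm) read every 20 min; […]. Peptide concentration measured by RP-HPLC before and after the run.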

[4] = Assay (IV) determination of solubility; format: physicochemical
Outline: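 Stock ~500 nmol/ml in water; 1:1 with 100 mM buffer, pH 3.0–8.0 (glycylglycine ≤5.0, bistrispropane ≥6.0); 18 h RT; spin; HPLC quantitation of soluble polypeptide.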

[5] = Table 2, BHK amylin 3(a)-receptor/CRE-luc cells
[6] = Table 7, human calcitonin (CTa) receptor
[7] = bistrispropane buffer, pH 6, pH 6.0, read-out: Solubility pH 6.0
[8] = bistrispropane buffer, pH 6.5, pH 6.5, read-out: Solubility pH 6.5
[9] = bistrispropane buffer, pH 7, pH 7.0, read-out: Solubility pH 7.0
[10] = bistrispropane buffer, pH 7.5, pH 7.5, read-out: Solubility pH 7.5
[11] = bistrispropane buffer, pH 8, pH 8.0, read-out: Solubility pH 8.0
[12] = glycylglycine buffer, pH 3, pH 3.0, read-out: Solubility pH 3.0
[13] = glycylglycine buffer, pH 4, pH 4.0, 18 hours at room temperature, Table 2, read-out: Solubility pH 4.0
[14] = glycylglycine buffer, pH 4, pH 4.0, read-out: Solubility pH 4.0
[15] = glycylglycine buffer, pH 5, pH 5.0, read-out: Solubility pH 5.0
[16] = Table 11, read-out: CTa receptor human EC50
[17] = bistrispropane buffer, pH 7, pH 7.0, 18 hours at room temperature, Table 3, read-out: Solubility pH 7.0

Row | SMILES | EC50 [1, 5] [nM] | EC50 [2, 6] [nM] | ThT pH 4.0 lag time ([3]; ThT fibrillation assay) [h] | ThT pH 4.0 lag time (h) ([3]; ThT fibrillation assay) | solubility at 18 h [4, 7] [µM] | solubility at 18 h [4, 8] [µM] | solubility at 18 h [4, 9] [µM] | solubility at 18 h [4, 10] [µM] | solubility at 18 h [4, 11] [µM] | solubility at 18 h [4, 12] [µM] | solubility at 18 h [4, 13] [µM] | solubility at 18 h [4, 14] [µM] | solubility at 18 h [4, 15] [µM] | EC50 [2, 16] [nM] | solubility at 18 h [4, 17] [µM] | further results
1 | CC[C@H](C)[C@H](NC(=O)[C@@H]1CCCN1C(=O)CNC(=O)[C@H](Cc1ccccc1)NC(=O)[C@H](CC(N)=O)NC(=O)[C@H](CC(N)=O)NC(=O)[C@H](CO)NC(=O)[C@H](CO)NC(=O)[C@H](Cc1c[nH]cn1)NC(=O)[C@H](Cc1c[nH]cn1)NC(=O)[C@H](CC(C)C)NC(=O)[C@H](Cc1ccccc1)NC(=O)[C@H](CCC(=O)O)NC(=O)[C@H](C)NC(=O)[C@H](CC(C)C)NC(=O)[C@H](CCCNC(=N)N)NC(=O)[C@H](CCC(N)=O)NC(=O)[C@@H](NC(=O)[C@H](C)NC(=O)[C@@H]1CSSC[C@H](NC(=O)[C@H](CCCCN)NC(=O)[C@H](Cc2c[nH]cn2)NC(=O)CC[C@H](NC(=O)CCCCCCCCCCCCCCCCC(=O)O)C(=O)O)C(=O)N[C@@H](CC(N)=O)C(=O)N[C@@H]([C@@H](C)O)C(=O)N[C@@H](C)C(=O)N[C@@H]([C@@H](C)O)C(=O)N1)[C@@H](C)O)C(=O)N[C@@H](CC(C)C)C(=O)N1CCC[C@H]1C(=O)N1CCC[C@H]1C(=O)N[C@H](C(=O)N[C@@H](CC(N)=O)C(=O)N[C@H](C(=O)NCC(=O)N[C@@H](CO)C(=O)N[C@@H](Cc1c[nH]cn1)C(=O)N[C@H](C(=O)N[C@@H](Cc1ccc(O)cc1)C(N)=O)[C@@H](C)O)C(C)C)[C@@H](C)O [Example 70, N-alpha-[(S)-4-Carboxy-4-(17-carboxyheptadecanoylamino)butyryl]-His-[Glu14,His17,His35]-pramlintide] ({C18 diacid-γGlu}-HKCNTATCATQRLAEFLHHSSNNFGPILPPTNVGSHTY-NH2; disulfide 3-8 (inferred); C-terminus assumed) | 0.0585 | 0.099 | >45 | >45 | > 200 | 69 (≈ 317 µg/mL) | 32 (≈ 147 µg/mL) | 52 (≈ 239 µg/mL) | 89 (≈ 408 µg/mL) | > 200 | > 200 | > 200 | > 200 |  |  | 
2 | CC[C@H](C)[C@H](NC(=O)[C@@H]1CCCN1C(=O)CNC(=O)[C@H](Cc1ccccc1)NC(=O)[C@H](CC(N)=O)NC(=O)[C@H](CC(N)=O)NC(=O)[C@H](CO)NC(=O)[C@H](CO)NC(=O)[C@H](Cc1c[nH]cn1)NC(=O)[C@H](CCCCNC(=O)COCCOCCNC(=O)COCCOCCNC(=O)CC[C@H](NC(=O)CCCCCCCCCCCCCCCCC(=O)O)C(=O)O)NC(=O)[C@H](CC(C)C)NC(=O)[C@H](Cc1ccccc1)NC(=O)[C@H](CCC(=O)O)NC(=O)[C@H](C)NC(=O)[C@H](CC(C)C)NC(=O)[C@H](CCCNC(=N)N)NC(=O)[C@H](CCC(N)=O)NC(=O)[C@@H](NC(=O)[C@H](C)NC(=O)[C@@H]1CSSC[C@H](NC(=O)[C@@H](N)CCCCN)C(=O)N[C@@H](CC(N)=O)C(=O)N[C@@H]([C@@H](C)O)C(=O)N[C@@H](C)C(=O)N[C@@H]([C@@H](C)O)C(=O)N1)[C@@H](C)O)C(=O)N[C@@H](CC(C)C)C(=O)N1CCC[C@H]1C(=O)N1CCC[C@H]1C(=O)N[C@H](C(=O)N[C@@H](CC(N)=O)C(=O)N[C@H](C(=O)NCC(=O)N[C@@H](CO)C(=O)N[C@@H](CC(N)=O)C(=O)N[C@H](C(=O)N[C@@H](Cc1ccc(O)cc1)C(N)=O)[C@@H](C)O)C(C)C)[C@@H](C)O [Example 80, N-epsilon17-[2-(2-{2-[2-(2-{2-[(S)-4-Carboxy-4-(17-carboxyheptadecanoylamino)butyrylamino]ethoxy}ethoxy)acetylamino]ethoxy}ethoxy)acetyl]-[Glu14,Lys17]-pramlintide] (H-KCNTATCATQRLAEFLK([AEEA-AEEA-γGlu-C18 diacid])HSSNNFGPILPPTNVGSNTY-NH2; disulfide 2-7) | 0.456 |  |  | 3 | > 200 | > 200 | > 200 | > 200 | > 200 | > 200 | > 200 | > 200 | > 200 | 4.3 | > 200 | 
3 | CC[C@H](C)[C@H](NC(=O)[C@@H]1CCCN1C(=O)CNC(=O)[C@H](Cc1ccccc1)NC(=O)[C@H](CC(N)=O)NC(=O)[C@H](CCC(N)=O)NC(=O)[C@H](CO)NC(=O)[C@H](CO)NC(=O)[C@H](Cc1c[nH]cn1)NC(=O)[C@H](Cc1c[nH]cn1)NC(=O)[C@H](CC(C)C)NC(=O)[C@H](Cc1ccccc1)NC(=O)[C@H](CCC(=O)O)NC(=O)[C@H](C)NC(=O)[C@H](CC(C)C)NC(=O)[C@H](CCCNC(=N)N)NC(=O)[C@H](CCC(N)=O)NC(=O)[C@@H](NC(=O)[C@H](C)NC(=O)[C@@H]1CSSC[C@H](NC(=O)[C@H](CCCCN)NC(=O)CC[C@H](NC(=O)CCCCCCCCCCCCCCCCCCC(=O)O)C(=O)O)C(=O)N[C@@H](CC(N)=O)C(=O)N[C@@H]([C@@H](C)O)C(=O)N[C@@H](C)C(=O)N[C@@H]([C@@H](C)O)C(=O)N1)[C@@H](C)O)C(=O)N[C@@H](CC(C)C)C(=O)N1CCC[C@H]1C(=O)N1CCC[C@H]1C(=O)N[C@H](C(=O)N[C@@H](CC(N)=O)C(=O)N[C@H](C(=O)NCC(=O)N[C@@H](CO)C(=O)N[C@@H](CCC(N)=O)C(=O)N[C@H](C(=O)N1CCC[C@H]1C(N)=O)[C@@H](C)O)C(C)C)[C@@H](C)O [Example 136, N-alpha-[(S)-4-Carboxy-4-(19-carboxynonadecanoylamino)butyryl]-[Glu14,His17,Gln21,Gln35,Pro37]-pramlintide] ({C20 diacid-γGlu}-KCNTATCATQRLAEFLHHSSQNFGPILPPTNVGSQTP-NH2; disulfide 2-7 (inferred)) | 0.091 | 0.045 | >45 | >45 | > 200 | > 200 | > 200 | > 200 | > 200 | > 200 | > 200 | > 200 | > 200 |  | > 200 | ThT pH 4.0 lag time ([3]; Table 8): >45 h; ThT pH 4.0 lag time ([3]; Table 9): >45 h; solubility at 18 h ([4]; bistrispropane buffer, pH 7, pH 7.0, Table 8, read-out: Solubility pH 7.0): > 200 µM; solubility at 18 h ([4]; bistrispropane buffer, pH 7, pH 7.0, Table 9, read-out: Solubility pH 7.0): > 200 µM; solubility at 18 h ([4]; bistrispropane buffer, pH 7.5, pH 7.5, Table 9, read-out: Solubility pH 7.5): > 200 µM
4 | CC[C@H](C)[C@H](NC(=O)[C@@H]1CCCN1C(=O)CNC(=O)[C@H](Cc1ccccc1)NC(=O)[C@H](CC(N)=O)NC(=O)[C@H](CC(N)=O)NC(=O)[C@H](CO)NC(=O)[C@H](CO)NC(=O)[C@H](Cc1c[nH]cn1)NC(=O)[C@@H](NC(=O)[C@H](CC(C)C)NC(=O)[C@H](Cc1ccccc1)NC(=O)[C@H](CC(N)=O)NC(=O)[C@H](C)NC(=O)[C@H](CC(C)C)NC(=O)[C@H](CCCNC(=N)N)NC(=O)[C@H](CCC(N)=O)NC(=O)[C@@H](NC(=O)[C@H](C)NC(=O)[C@@H]1CSSC[C@H](NC(=O)[C@H](CCC(=O)O)NC(=O)[C@H](CCCNC(=N)N)NC(=O)[C@H](CCC(=O)O)NC(=O)[C@H](CCC(=O)O)NC(=O)CCCCCCCCCCCCCCCCCCC(=O)O)C(=O)N[C@@H](CC(N)=O)C(=O)N[C@@H]([C@@H](C)O)C(=O)N[C@@H](C)C(=O)N[C@@H]([C@@H](C)O)C(=O)N1)[C@@H](C)O)C(C)C)C(=O)N[C@@H](CC(C)C)C(=O)N1CCC[C@H]1C(=O)N1CCC[C@H]1C(=O)N[C@H](C(=O)N[C@@H](CC(N)=O)C(=O)N[C@H](C(=O)NCC(=O)N[C@@H](CO)C(=O)N[C@@H](CC(N)=O)C(=O)N[C@H](C(=O)N1CCC[C@H]1C(N)=O)[C@@H](C)O)C(C)C)[C@@H](C)O [Example 121, N-alpha-(19-carboxynonadecanoyl)-Glu-Glu-Arg-[Glu1,Pro37]-pramlintide] ({C20 diacid}-EERECNTATCATQRLANFLVHSSNNFGPILPPTNVGSNTP-NH2; disulfide 5-10 (inferred); C-terminus assumed) |  |  |  | 0.3 | 155 (≈ 717 µg/mL) | 127 (≈ 587 µg/mL) | 54 (≈ 250 µg/mL) | 157 (≈ 726 µg/mL) | 117 (≈ 541 µg/mL) | > 200 |  | > 200 | > 200 | 0.0615 |  | EC50 ([1]; Table 11): 0.045 nM
